Data reported in patent US20240109865A1, “INDAZOLE COMPOUNDS AS KINASE INHIBITORS” (TYRA BIOSCIENCES, INC., priority 2020, published 2024).

Tests used:
Assay in all cases: Kinase assay, binding constants (Kd), kinase-tagged T7 phage, qPCR
FGFR4 = FGFR4 (Homo sapiens (Human), UniProt P22455)
Method in brief: (§1)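 Competition binding: kinase-tagged T7 phage lysates mixed with immobilized biotinylated ligand on streptavidin beads plus compound (11-point 3-fold dilution series, 0.9% DMSO final). Bound kinase eluted with free ligand and quantified by qPCR. Kd from Hill equation fit, slope fixed at −1.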

FGFR3 (V555M) = FGFR3 (V555M) (Homo sapiens (Human), UniProt P22607, V555M); conditions: V555M mutant
FGFR3 (V555M), sequence (P22607 23-806 V555M): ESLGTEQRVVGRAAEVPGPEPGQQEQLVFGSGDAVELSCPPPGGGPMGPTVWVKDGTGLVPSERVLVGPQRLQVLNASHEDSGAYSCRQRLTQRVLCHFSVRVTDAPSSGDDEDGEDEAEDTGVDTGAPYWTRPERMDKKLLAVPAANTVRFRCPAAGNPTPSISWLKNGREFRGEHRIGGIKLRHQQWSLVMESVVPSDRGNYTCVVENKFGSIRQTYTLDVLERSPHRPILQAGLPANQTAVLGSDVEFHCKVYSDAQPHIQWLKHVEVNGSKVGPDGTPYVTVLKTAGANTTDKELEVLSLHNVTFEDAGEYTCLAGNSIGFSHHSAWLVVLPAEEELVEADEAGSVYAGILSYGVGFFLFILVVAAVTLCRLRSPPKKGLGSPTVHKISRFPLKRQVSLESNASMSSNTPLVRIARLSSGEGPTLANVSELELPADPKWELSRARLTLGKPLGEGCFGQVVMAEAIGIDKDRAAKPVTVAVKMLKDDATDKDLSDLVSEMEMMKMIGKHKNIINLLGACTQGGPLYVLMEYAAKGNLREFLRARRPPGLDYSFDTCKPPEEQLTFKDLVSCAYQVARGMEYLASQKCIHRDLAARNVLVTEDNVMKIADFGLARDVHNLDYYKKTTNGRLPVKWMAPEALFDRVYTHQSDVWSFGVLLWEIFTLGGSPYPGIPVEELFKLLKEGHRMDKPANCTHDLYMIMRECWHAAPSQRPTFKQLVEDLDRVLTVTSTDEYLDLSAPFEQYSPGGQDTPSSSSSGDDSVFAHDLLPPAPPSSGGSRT
Method in brief: as §1

FGFR2 = FGFR2 (Homo sapiens (Human), UniProt P21802)
FGFR2, sequence (P21802 22-821): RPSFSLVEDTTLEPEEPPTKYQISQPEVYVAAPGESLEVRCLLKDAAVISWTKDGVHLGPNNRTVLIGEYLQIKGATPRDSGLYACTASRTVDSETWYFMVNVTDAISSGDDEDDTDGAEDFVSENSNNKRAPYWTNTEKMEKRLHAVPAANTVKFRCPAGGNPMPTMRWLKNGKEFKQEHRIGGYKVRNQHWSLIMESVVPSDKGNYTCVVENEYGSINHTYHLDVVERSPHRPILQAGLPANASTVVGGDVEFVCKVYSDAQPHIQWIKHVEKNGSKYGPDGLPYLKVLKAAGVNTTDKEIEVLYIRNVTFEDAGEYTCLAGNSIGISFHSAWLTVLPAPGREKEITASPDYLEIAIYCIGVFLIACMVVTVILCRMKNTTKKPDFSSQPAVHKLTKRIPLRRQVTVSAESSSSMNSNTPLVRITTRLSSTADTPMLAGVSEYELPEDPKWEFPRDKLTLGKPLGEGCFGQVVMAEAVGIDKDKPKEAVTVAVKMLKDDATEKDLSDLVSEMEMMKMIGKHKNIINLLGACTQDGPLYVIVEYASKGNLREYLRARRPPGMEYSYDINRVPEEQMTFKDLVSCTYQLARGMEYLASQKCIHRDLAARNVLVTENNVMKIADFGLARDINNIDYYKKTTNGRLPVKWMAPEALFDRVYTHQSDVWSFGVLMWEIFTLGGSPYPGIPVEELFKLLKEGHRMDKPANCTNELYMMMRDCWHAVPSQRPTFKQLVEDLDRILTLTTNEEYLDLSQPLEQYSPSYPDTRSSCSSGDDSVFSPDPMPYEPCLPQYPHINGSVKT
Method in brief: as §1

FGFR1 = FGFR1 (Homo sapiens (Human), UniProt P11362)
FGFR1, sequence (P11362 22-822): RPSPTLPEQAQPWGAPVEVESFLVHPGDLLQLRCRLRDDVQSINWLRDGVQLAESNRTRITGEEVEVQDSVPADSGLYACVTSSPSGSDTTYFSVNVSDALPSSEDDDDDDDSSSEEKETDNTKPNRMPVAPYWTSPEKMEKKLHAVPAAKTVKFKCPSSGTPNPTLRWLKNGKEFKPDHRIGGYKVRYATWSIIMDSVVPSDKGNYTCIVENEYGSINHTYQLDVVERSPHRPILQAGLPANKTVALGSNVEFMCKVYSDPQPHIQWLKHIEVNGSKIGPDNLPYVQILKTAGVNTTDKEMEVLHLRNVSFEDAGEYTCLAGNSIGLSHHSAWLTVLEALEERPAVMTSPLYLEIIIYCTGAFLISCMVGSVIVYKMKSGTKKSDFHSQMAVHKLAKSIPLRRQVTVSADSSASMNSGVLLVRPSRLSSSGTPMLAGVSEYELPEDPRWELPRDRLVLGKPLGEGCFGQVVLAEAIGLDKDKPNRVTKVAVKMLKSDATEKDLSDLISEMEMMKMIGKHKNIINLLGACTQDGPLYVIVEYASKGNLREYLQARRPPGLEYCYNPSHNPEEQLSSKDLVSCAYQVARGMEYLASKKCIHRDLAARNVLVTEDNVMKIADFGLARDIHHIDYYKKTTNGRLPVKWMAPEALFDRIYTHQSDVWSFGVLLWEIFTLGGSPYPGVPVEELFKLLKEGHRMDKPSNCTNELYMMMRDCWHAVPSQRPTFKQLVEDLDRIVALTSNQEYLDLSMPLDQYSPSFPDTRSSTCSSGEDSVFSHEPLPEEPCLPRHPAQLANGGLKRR
Method in brief: as §1

FGFR3 = FGFR3 (Homo sapiens (Human), UniProt P22607)
FGFR3, sequence (P22607 23-806): as the sequence (P22607 23-806 V555M) above, with M533V counted along it
Method in brief: as §1

FGFR4, sequence (P22455 22-802): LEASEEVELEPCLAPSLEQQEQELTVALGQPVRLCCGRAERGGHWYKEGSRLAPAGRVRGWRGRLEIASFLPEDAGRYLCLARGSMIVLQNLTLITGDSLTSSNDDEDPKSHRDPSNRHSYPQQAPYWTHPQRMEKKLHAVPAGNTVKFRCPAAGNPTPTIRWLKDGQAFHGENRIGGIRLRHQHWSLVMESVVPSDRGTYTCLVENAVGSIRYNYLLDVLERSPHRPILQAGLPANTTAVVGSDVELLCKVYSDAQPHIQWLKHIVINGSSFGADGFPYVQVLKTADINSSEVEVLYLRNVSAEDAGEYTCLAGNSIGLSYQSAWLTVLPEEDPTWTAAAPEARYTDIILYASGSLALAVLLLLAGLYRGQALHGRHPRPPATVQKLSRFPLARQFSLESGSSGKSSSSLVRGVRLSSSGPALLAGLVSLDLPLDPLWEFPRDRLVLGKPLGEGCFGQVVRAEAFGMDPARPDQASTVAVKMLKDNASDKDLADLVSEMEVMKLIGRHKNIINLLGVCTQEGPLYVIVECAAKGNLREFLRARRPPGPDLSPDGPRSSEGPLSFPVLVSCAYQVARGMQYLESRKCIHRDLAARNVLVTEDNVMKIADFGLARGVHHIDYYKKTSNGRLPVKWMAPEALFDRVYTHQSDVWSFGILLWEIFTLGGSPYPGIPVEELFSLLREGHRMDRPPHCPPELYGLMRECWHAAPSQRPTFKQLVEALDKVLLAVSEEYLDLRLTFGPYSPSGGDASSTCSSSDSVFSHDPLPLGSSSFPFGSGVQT

| SMILES | Kd (FGFR4) [nM] | Kd (FGFR3 (V555M)) [nM] | Kd (FGFR2) [nM] | Kd (FGFR1) [nM] | Kd (FGFR3) [nM] |
| --- | --- | --- | --- | --- | --- |
| COc1cc2[nH]nc(-c3cnc(N4CC5(C4)CN(S(C)(=O)=O)C5)c(C#N)c3)c2cc1O[C@H](C)c1c(Cl)cncc1Cl [Example 342, 5-[5-[(1R)-1-(3,5-dichloro-4-pyridyl)ethoxy]-6-methoxy-1H-indazol-3-yl]-2-(2-methylsulfonyl-2,6-diazaspiro[3.3]heptan-6-yl)pyridine-3-carbonitrile] | 1 to 20 | 1 to 20 | 1 to 20 | 20 to 100 | 1 to 20 |
| COc1cc(-c2n[nH]c3ccc(O[C@H](C)c4c(C)cnnc4C)cc23)cnc1N1CC2CC(C1)N2CC(C)(C)O [Example 323, 1-(3-(5-(5-((R)-1-(3,5-dimethylpyridazin-4-yl)ethoxy)-1H-indazol-3-yl)-3-methoxypyridin-2-yl)-3,6-diazabicyclo[3.1.1]heptan-6-yl)-2-methylpropan-2-ol] | 1 to 20 | 20 to 100 | > 300 | > 300 | > 300 |
| C[C@@H](Oc1cc2c(-c3cnc(N4CC5(C4)CN(S(C)(=O)=O)C5)c(C#N)c3)n[nH]c2cc1F)c1c(Cl)cncc1Cl [Example 355, (R)-5-(5-(1-(3,5-dichloropyridin-4-yl)ethoxy)-6-fluoro-1H-indazol-3-yl)-2-(6-(methylsulfonyl)-2,6-diazaspiro[3.3]heptan-2-yl)nicotinonitrile] | 1 to 20 | 1 to 20 | 20 to 100 | 1 to 20 | 1 to 20 |
| COc1cc2[nH]nc(-c3cnc(N4CC5(COC5)C4)c(C)c3)c2cc1O[C@H](C)c1c(C)cnnc1C [Example 219, (R)-6-(5-(5-(1-(3,5-dimethylpyridazin-4-yl)ethoxy)-6-methoxy-1H-indazol-3-yl)-3-methylpyridin-2-yl)-2-oxa-6-azaspiro[3.3]heptane] | 1 to 20 | 1 to 20 | 1 to 20 | 20 to 100 | 1 to 20 |
| CC(C)N1CC[C@@H](n2cc(-c3n[nH]c4ccc(O[C@H](C)c5c(Cl)cncc5Cl)cc34)cn2)C1 [Example 84, 5-[(1R)-1-(3,5-dichloro-4-pyridyl)ethoxy]-3-[(1R)-1-(1-isopropylpyrrolidin-3-yl)pyrazol-4-yl]-1H-indazole] | 20 to 100 | 1 to 20 | 1 to 20 | 1 to 20 | 1 to 20 |
| C[C@@H](Oc1ccc2[nH]nc(-c3cnc(N4CC[C@@H](O)C4)c(C#N)c3)c2c1)c1c(Cl)cncc1Cl [Example 297, 5-[5-[(1R)-1-(3,5-dichloro-4-pyridyl)ethoxy]-1H-indazol-3-yl]-2-[(3R)-3-hydroxypyrrolidin-1-yl]pyridine-3-carbonitrile] | 1 to 20 | 1 to 20 | 100 to 300 | 20 to 100 | 1 to 20 |
| C[C@@H](Oc1ccc2[nH]nc(-c3cnc(N4CC(O)C4)c(C#N)c3)c2c1)c1c(Cl)cnc(F)c1Cl [Example 287, (R)-5-(5-(1-(3,5-dichloro-2-fluoropyridin-4-yl)ethoxy)-1H-indazol-3-yl)-2-(3-hydroxyazetidin-1-yl)nicotinonitrile] | 20 to 100 | 100 to 300 | > 300 | > 300 | 100 to 300 |
| COc1cc2[nH]nc(-c3cnc(N4CC5CC(C4)N5)c(C)c3)c2cc1O[C@H](C)c1c(C)cnnc1C [Example 317, 3-(5-(5-((R)-1-(3,5-dimethylpyridazin-4-yl)ethoxy)-6-methoxy-1H-indazol-3-yl)-3-methylpyridin-2-yl)-3,6-diazabicyclo[3.1.1]heptane] | 1 to 20 | 1 to 20 | 1 to 20 | 1 to 20 | 1 to 20 |
| C[C@@H](Oc1ccc2[nH]nc(-c3cnc(N4CCC(O)CC4)c(C#N)c3)c2c1)c1c(Cl)cncc1Cl [Example 298, 5-[5-[(1R)-1-(3,5-dichloro-4-pyridyl)ethoxy]-1H-indazol-3-yl]-2-(4-hydroxy-1-piperidyl)pyridine-3-carbonitrile] | 1 to 20 | 1 to 20 | 20 to 100 | 20 to 100 | 1 to 20 |
| CCS(=O)(=O)N1CC2(CN(c3ncc(-c4n[nH]c5ccc(O[C@H](C)c6c(Cl)cnc(C)c6Cl)cc45)cn3)C2)C1 [Example 181, 5-[(1R)-1-(3,5-dichloro-2-methyl-4-pyridyl)ethoxy]-3-[2-(2-ethylsulfonyl-2,6-diazaspiro[3.3]heptan-6-yl)pyrimidin-5-yl]-1H-indazole] | 1 to 20 | 1 to 20 | > 300 | 100 to 300 | 1 to 20 |
| COc1cc2[nH]nc(-c3ccc(N4CC5(C4)CN(S(C)(=O)=O)C5)nc3)c2cc1O[C@H](C)c1c(C)cnnc1C [Example 194, 5-[(1R)-1-(3,5-dimethylpyridazin-4-yl)ethoxy]-6-methoxy-3-[6-(2-methylsulfonyl-2,6-diazaspiro[3.3]heptan-6-yl)-3-pyridyl]-1H-indazole] | 1 to 20 | 1 to 20 | 1 to 20 | 1 to 20 | 1 to 20 |
| C[C@@H](Oc1cc2c(-c3cnc(N4CCC4)c(C#N)c3)n[nH]c2cc1Cl)c1c(Cl)cncc1Cl [Example 377, 2-(azetidin-1-yl)-5-[6-chloro-5-[(1R)-1-(3,5-dichloro-4-pyridyl)ethoxy]-1H-indazol-3-yl]pyridine-3-carbonitrile] | 1 to 20 | 20 to 100 | > 300 | > 300 | 100 to 300 |
| Cc1ncc(Cl)c([C@@H](C)Oc2ccc3[nH]nc(-c4ccc(N5CC6(CNC6)C5)nc4)c3c2)c1Cl [Example 177, 3-[6-(2,6-diazaspiro[3.3]heptan-2-yl)-3-pyridyl]-5-[(1R)-1-(3,5-dichloro-2-methyl-4-pyridyl)ethoxy]-1H-indazole] | 1 to 20 | 1 to 20 | 20 to 100 | 1 to 20 | 1 to 20 |
| Cc1ncc(Cl)c([C@@H](C)Oc2ccc3[nH]nc(-c4ccc(N5CC6(COC6)C5)nc4)c3c2)c1Cl [Example 201, 6-[5-[5-[(1R)-1-(3,5-dichloro-2-methyl-4-pyridyl)ethoxy]-1H-indazol-3-yl]-2-pyridyl]-2-oxa-6-azaspiro[3.3]heptane] | 1 to 20 | 1 to 20 | 1 to 20 | 20 to 100 | 1 to 20 |
| C[C@@H](Oc1ccc2[nH]nc(-c3ccc(N4CC(C(F)(F)F)C4)nc3)c2c1)c1c(Cl)cncc1Cl [Example 249, (R)-5-(1-(3,5-dichloropyridin-4-yl)ethoxy)-3-(6-(3-(trifluoromethyl)azetidin-1-yl)pyridin-3-yl)-1H-indazole] | 1 to 20 | 1 to 20 | 20 to 100 | 20 to 100 | 1 to 20 |
| C[C@@H](Oc1ccc2[nH]nc(-c3ccc(N4CC5(C4)CN(S(C)(=O)=O)C5)nc3)c2c1)c1c(Cl)cnc(F)c1Cl [Example 197, 5-[(1R)-1-(3,5-dichloro-2-fluoro-4-pyridyl)ethoxy]-3-[6-(2-methylsulfonyl-2,6-diazaspiro[3.3]heptan-6-yl)-3-pyridyl]-1H-indazole] | 1 to 20 | 1 to 20 | 20 to 100 | 20 to 100 | 1 to 20 |
| COc1cc2[nH]nc(-c3ccc(N4CC5(C4)CN(S(C)(=O)=O)C5)nc3)c2cc1O[C@H](C)c1c(Cl)cncc1Cl [Example 191, 5-[(1R)-1-(3,5-dichloro-4-pyridyl)ethoxy]-6-methoxy-3-[6-(2-methylsulfonyl-2,6-diazaspiro[3.3]heptan-6-yl)-3-pyridyl]-1H-indazole] | 1 to 20 | 1 to 20 | 1 to 20 | 1 to 20 | 1 to 20 |
| Cc1cc2[nH]nc(-c3ccc(N4CC5(C4)CN(S(C)(=O)=O)C5)nc3)c2cc1O[C@H](C)c1c(Cl)cncc1Cl [Example 251, (R)-5-(1-(3,5-dichloropyridin-4-yl)ethoxy)-6-methyl-3-(6-(6-(methylsulfonyl)-2,6-diazaspiro[3.3]heptan-2-yl)pyridin-3-yl)-1H-indazole] | 1 to 20 | 1 to 20 | 1 to 20 | 1 to 20 | 1 to 20 |
| C[C@@H](Oc1ccc2[nH]nc(-c3cnc(N4CC5(CNC5)C4)nc3)c2c1)c1c(Cl)cncc1Cl [Example 118, 3-[2-(2,6-diazaspiro[3.3]heptan-2-yl)pyrimidin-5-yl]-5-[(1R)-1-(3,5-dichloro-4-pyridyl)ethoxy]-1H-indazole] | 1 to 20 | 1 to 20 | 20 to 100 | 1 to 20 | 1 to 20 |
| Cc1cnnc(C)c1[C@@H](C)Oc1ccc2[nH]nc(-c3cnc(N4CC5CC(C4)N5)c(C#N)c3)c2c1 [Example 299, 2-(3,6-diazabicyclo[3.1.1]heptan-3-yl)-5-(5-((R)-1-(3,5-dimethylpyridazin-4-yl)ethoxy)-1H-indazol-3-yl)nicotinonitrile] | 1 to 20 | 1 to 20 | 20 to 100 | 20 to 100 | 1 to 20 |
| C[C@@H](Oc1cc2c(-c3cnc(N4CC5(C4)CN(S(C)(=O)=O)C5)c(F)c3)n[nH]c2cc1Cl)c1c(Cl)cnnc1Cl [Example 264, (R)-6-chloro-5-(1-(3,5-dichloropyridazin-4-yl)ethoxy)-3-(5-fluoro-6-(6-(methylsulfonyl)-2,6-diazaspiro[3.3]heptan-2-yl)pyridin-3-yl)-1H-indazole] | 1 to 20 | 1 to 20 | 1 to 20 | 1 to 20 | 1 to 20 |
| COc1cc2[nH]nc(-c3ccc(N4CC5(C4)CN(S(C)(=O)=O)C5)nc3)c2cc1O[C@H](C)c1c(Cl)cnc(C)c1Cl [Example 207, 5-[(1R)-1-(3,5-dichloro-2-methyl-4-pyridyl)ethoxy]-6-methoxy-3-[6-(2-methylsulfonyl-2,6-diazaspiro[3.3]heptan-6-yl)-3-pyridyl]-1H-indazole] | 1 to 20 | 1 to 20 | 1 to 20 | 1 to 20 | 1 to 20 |
